Starred links: 1 amine or outer side, 2 acyl side, 3 side chain; linkers in the order of their positions; H or OH if unused. Non-standard residues stand in square brackets, D forms with d. Residues, ends and D or L forms follow the SMILES beside them. *: point of attachment. X1 = NC(=O)C[C@@H](C(=O)[*:2])N(C[C@@H](N)Cc1ccc(O)cc1)[*:1]; Propanoyl(3-indol-3-yl) = O=C(CCc1c[nH]c2ccccc12)*; X3 = O=C(CNC(=S)[C@H](Cc1ccccc1)N[*:1])[*:2]; Diphenylacetyl = O=C(C(c1ccccc1)c1ccccc1)*; Arg(Me) = CNC(=N)NCCC[C@H](N)C(=O)O; Tryptamide = c1ccc2c(CCN*)c[nH]c2c1; 4Pal = N[C@@H](Cc1ccncc1)C(=O)O; X2 = O=C(Cc1c[nH]c2ccccc12)*; Tos = Cc1ccc(S(=O)(=O)*)cc1; X7 = O=C(c1c[nH]c2ccccc12)*; CO = O=C([*:1])[*:2]; azaGly = NNC(=O)O
What was measured:
[1] = molecular target: T1, hOT7T175 (Homo sapiens, UniProt Q969F8); assay: Intracellular Ca ion level-increasing activity using FLIPR (180 seconds; specific activity to Metastin (1-54)); type: cell-based; settings: hOT7T175/CHO, change in intracellular calcium ion level for 180 seconds, Tables 21-23
T1 construct: expressed in transfected cells
T1 sequence (Q969F8 whole entry L364H): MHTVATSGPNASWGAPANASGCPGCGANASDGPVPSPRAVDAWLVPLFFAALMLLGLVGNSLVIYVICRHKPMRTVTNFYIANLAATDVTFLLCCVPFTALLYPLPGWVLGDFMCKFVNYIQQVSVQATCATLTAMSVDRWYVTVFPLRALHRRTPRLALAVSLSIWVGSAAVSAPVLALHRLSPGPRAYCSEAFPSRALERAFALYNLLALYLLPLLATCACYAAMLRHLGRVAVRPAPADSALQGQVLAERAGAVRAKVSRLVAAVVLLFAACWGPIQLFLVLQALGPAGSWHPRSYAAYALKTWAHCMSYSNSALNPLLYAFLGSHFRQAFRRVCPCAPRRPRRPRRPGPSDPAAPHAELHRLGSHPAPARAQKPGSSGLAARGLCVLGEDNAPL

[2] = molecular target: T2, hOT7T175 (Homo sapiens, UniProt Q969F8, L364H); type: cell-based; settings: hOT7T175/CHO, FLIPR, evaluation for 40 seconds after initiation of the reaction
T2 construct: expressed in transfected cells
T2 sequence (Q969F8 whole entry L364H): as above
Protocol: The intracellular Ca ion level-increasing activity was measured using FLIPR as in TEST EXAMPLE 2.

## 1-Azetidinecarbonyl-Phe-AzaGly-Leu-Arg(Me)-Trp-NH2 [Compound No. 468]
[1]
  intracellular Ca ion level-increasing activity [specific activity to Metastin (1-54)]: 1
[2]
  Specific Act. (EC50/MS10 EC50): 5.2

## 2-(Indol-3-yl)ethylcarbamoyl-Phe-AzaGly-Leu-Arg(Me)-Trp-NH2 [Compound No. 369]
[1]
  intracellular Ca ion level-increasing activity [specific activity to Metastin (1-54)]: 2
[2]
  Specific Act. (EC50/MS10 EC50): 4.8

## 2-Aminoethyl-Gly-D-Tyr-Asn-Trp-Asn-Ser-Phe-Gly-Leu-Arg(Me)-Phe-NH2 [Compound No. 375]
[1]
  intracellular Ca ion level-increasing activity [specific activity to Metastin (1-54)]: 2
[2]
  Specific Act. (EC50/MS10 EC50): 5.2

## 3-Furancarbonyl-Phe-AzaGly-Leu-Arg(Me)-Trp-NH2 [Compound No. 454]
[1]
  intracellular Ca ion level-increasing activity [specific activity to Metastin (1-54)]: 6
[2]
  Specific Act. (EC50/MS10 EC50): 2.5

## 3-Phenylpropionyl-Ala-Ser-Phe-AzaGly-Leu-Arg(Me)-Trp-NH2 [Compound No. 500]
[1]
  intracellular Ca ion level-increasing activity [specific activity to Metastin (1-54)]: 1
[2]
  Specific Act. (EC50/MS10 EC50): 3.2

## 3-Phenylpropionyl-Asn-Ile-Phe-AzaGly-Leu-Arg(Me)-Trp-NH2 [Compound No. 506]
[1]
  intracellular Ca ion level-increasing activity [specific activity to Metastin (1-54)]: 1
[2]
  Specific Act. (EC50/MS10 EC50): 1.3

## 3-Phenylpropionyl-Asn-Ser-Trp-AzaGly-Leu-Arg(Me)-Trp-NH2 [Compound No. 507]
[1]
  intracellular Ca ion level-increasing activity [specific activity to Metastin (1-54)]: 5
[2]
  Specific Act. (EC50/MS10 EC50): 1.7

## 4-Aminobenzoyl-Phe-AzaGly-Leu-Arg(Me)-Trp-NH2 [Compound No. 472]
[1]
  intracellular Ca ion level-increasing activity [specific activity to Metastin (1-54)]: 3
[2]
  Specific Act. (EC50/MS10 EC50): 3.4

## 4-Aminomethylbenzoyl-Phe-AzaGly-Leu-Arg(Me)-Trp-NH2 [Compound No. 473]
[1]
  intracellular Ca ion level-increasing activity [specific activity to Metastin (1-54)]: 3
[2]
  Specific Act. (EC50/MS10 EC50): 4.2

## 4-Imidazolecarbonyl-Phe-AzaGly-Leu-Arg(Me)-Trp-NH2 [Compound No. 459]
[1]
  intracellular Ca ion level-increasing activity [specific activity to Metastin (1-54)]: 2
[2]
  Specific Act. (EC50/MS10 EC50): 7.3

## 6-(Trifluoromethyl)nicotinoyl-Phe-AzaGly-Leu-Arg(Me)-Trp-NH2 [Compound No. 464]
[1]
  intracellular Ca ion level-increasing activity [specific activity to Metastin (1-54)]: 1
[2]
  Specific Act. (EC50/MS10 EC50): 10.5

## 6-Chloronicotinoyl-Phe-AzaGly-Leu-Arg(Me)-Trp-NH2 [Compound No. 463]
[1]
  intracellular Ca ion level-increasing activity [specific activity to Metastin (1-54)]: 2
[2]
  Specific Act. (EC50/MS10 EC50): 4.6

## 6-Methylnicotinoyl-Phe-AzaGly-Leu-Arg(Me)-Trp-NH2 [Compound No. 445]
[1]
  intracellular Ca ion level-increasing activity [specific activity to Metastin (1-54)]: 5
[2]
  Specific Act. (EC50/MS10 EC50): 4.2

## CNC(=N)NCCC[C@H](NC(=O)[C@H](CC(C)C)NC(=O)NNC(=O)[C@H](Cc1ccccc1)NC(=O)[C@H](CO)NC(=O)[C@H](CC(N)=O)NC(=O)CCc1c[nH]c2ccccc12)C(=O)N[C@@H](Cc1ccccc1)C(N)=O [Compound No. 260, 3-(3-Indolyl)propionyl-Asn-Ser-Phe-AzaGly-Leu-Arg(Me)-Phe-NH2] ({Propanoyl(3-indol-3-yl)}-NSF[azaGly]L[Arg(Me)]F-NH2)
[1]
  intracellular Ca ion level-increasing activity [specific activity to Metastin (1-54)]: 5
[2]
  Specific Act. (EC50/MS10 EC50): 4.3

## CNC(=N)NCCC[C@H](NC(=O)[C@H](CC(C)C)NC(=O)NNC(=O)[C@H](Cc1ccccc1)NC(=O)[C@H](CO)NC(=O)[C@H](CC(N)=O)NC(=O)c1c[nH]c2ccccc12)C(=O)N[C@@H](Cc1ccccc1)C(N)=O [Compound No. 265, Indole-3-carbonyl-Asn-Ser-Phe-AzaGly-Leu-Arg(Me)-Phe-NH2] (X7-NSF[azaGly]L[Arg(Me)]F-NH2)
[1]
  intracellular Ca ion level-increasing activity [specific activity to Metastin (1-54)]: 3
[2]
  Specific Act. (EC50/MS10 EC50): 4.4

## CNC(=N)NCCC[C@H](NC(=O)[C@H](CC(C)C)NC(=O)NNC(=O)[C@H](Cc1ccccc1)NC(=O)[C@H](CO)NC(=O)[C@H](CC(N)=O)NC(=O)Cc1c[nH]c2ccccc12)C(=O)N[C@@H](Cc1ccccc1)C(N)=O [Compound No. 266, Indol-3-acetyl-Asn-Ser-Phe-AzaGly-Leu-Arg(Me)-Phe-NH2] (X2-NSF[azaGly]L[Arg(Me)]F-NH2)
[1]
  intracellular Ca ion level-increasing activity [specific activity to Metastin (1-54)]: 2
[2]
  Specific Act. (EC50/MS10 EC50): 5.4

## CNC(=N)NCCC[C@H](NC(=O)[C@H](CC(C)C)NC(=O)NNC(=O)[C@H](Cc1ccccc1)NC(=O)[C@H](CO)NC(=O)[C@H](CC(N)=O)NC(=O)C(c1ccccc1)c1ccccc1)C(=O)N[C@@H](Cc1ccccc1)C(N)=O [Compound No. 268, Diphenylacetyl-Asn-Ser-Phe-AzaGly-Leu-Arg(Me)-Phe-NH2] (Diphenylacetyl-NSF[azaGly]L[Arg(Me)]F-NH2)
[1]
  intracellular Ca ion level-increasing activity [specific activity to Metastin (1-54)]: 1
[2]
  Specific Act. (EC50/MS10 EC50): 4.5

## CNC(=N)NCCC[C@H](NC(=O)[C@H](CC(C)C)NC(=O)NNC(=O)[C@H](Cc1ccccc1)NC(=O)[C@H](CO)NC(=O)[C@H](CC(N)=O)NC(=O)NCCc1c[nH]c2ccccc12)C(=O)N[C@@H](Cc1ccccc1)C(N)=O [Compound No. 279, 2-(indol-3-yl)ethylcarbamoyl-Asn-Ser-Phe-AzaGly-Leu-Arg(Me)-Phe-NH2] ({Tryptamide-CO}-NSF[azaGly]L[Arg(Me)]F-NH2)
[1]
  intracellular Ca ion level-increasing activity [specific activity to Metastin (1-54)]: 5
[2]
  Specific Act. (EC50/MS10 EC50): 6.4

## CC(C)C[C@H](NC(=O)CNC(=O)[C@H](Cc1ccccc1)NC(=O)[C@H](CO)NC(=O)[C@H](CC(N)=O)NC(=O)[C@H](Cc1c[nH]c2ccccc12)NC(=O)[C@H](CC(N)=O)NC[C@@H](N)Cc1ccc(O)cc1)C(=O)N[C@@H](CCCNC(=N)N)C(=O)N[C@@H](Cc1ccccc1)C(N)=O [Compound No. 294] (H-[X1]WNSFGLRF-NH2)
[1]
  intracellular Ca ion level-increasing activity [specific activity to Metastin (1-54)]: 10
[2]
  Specific Act. (EC50/MS10 EC50): 0.7

## CNC(=N)NCCC[C@H](NC(=O)[C@H](CC(C)C)NC(=O)CNC(=S)[C@H](Cc1ccccc1)NC(=O)[C@H](CO)NC(=O)[C@H](CC(N)=O)NC(=O)[C@H](Cc1c[nH]c2ccccc12)NC(=O)[C@H](CC(N)=O)NC(=O)[C@H](N)Cc1ccc(O)cc1)C(=O)N[C@@H](Cc1ccccc1)C(N)=O [Compound No. 296, D-Tyr-Asn-Trp-Asn-Ser-PheΨ(CSNH)Gly-Leu-Arg(Me)-Phe-NH2] (H-[dY]NWNS[X3]L[Arg(Me)]F-NH2)
[1]
  intracellular Ca ion level-increasing activity [specific activity to Metastin (1-54)]: 3
[2]
  Specific Act. (EC50/MS10 EC50): 5.2

## CNC(=N)NCCC[C@H](NC(=O)[C@H](CC(C)C)NC(=O)NNC(=O)[C@H](Cc1ccccc1)NC(=O)[C@@H](NC(=O)[C@H](CC(N)=O)NC(=O)[C@H](Cc1c[nH]c2ccccc12)NC(=O)[C@H](CC(N)=O)NC(=O)[C@H](N)Cc1ccc(O)cc1)[C@@H](C)O)C(=O)N[C@@H](Cc1ccccc1)C(N)=O [Compound No. 297, D-Tyr-Asn-Trp-Asn-Thr-Phe-AzaGly-Leu-Arg(Me)-Phe-NH2] (H-[dY]NWNTF[azaGly]L[Arg(Me)]F-NH2)
[1]
  intracellular Ca ion level-increasing activity [specific activity to Metastin (1-54)]: 1
[2]
  Specific Act. (EC50/MS10 EC50): 5.5

## CNC(=N)NCCC[C@H](NC(=O)[C@H](CC(C)C)NC(=O)NNC(=O)[C@H](Cc1ccccc1)NC(=O)[C@@H](NC(=O)[C@H](CC(N)=O)NC(=O)[C@H](Cc1c[nH]c2ccccc12)NC(=O)[C@@H](CC(N)=O)NC(=O)[C@H](N)Cc1ccc(O)cc1)[C@@H](C)O)C(=O)N[C@@H](Cc1ccccc1)C(N)=O [Compound No. 298, D-Tyr-D-Asn-Trp-Asn-Thr-Phe-AzaGly-Leu-Arg(Me)-Phe-NH2] (H-[dY][dN]WNTF[azaGly]L[Arg(Me)]F-NH2)
[1]
  intracellular Ca ion level-increasing activity [specific activity to Metastin (1-54)]: 5
[2]
  Specific Act. (EC50/MS10 EC50): 1.8

## CNC(=N)NCCC[C@H](NC(=O)[C@H](CC(C)C)NC(=O)NNC(=O)[C@H](Cc1ccccc1)NC(=O)[C@H](CO)NC(=O)[C@H](CC(N)=O)NC(=O)[C@H](Cc1ccncc1)NC(=O)[C@@H](CC(N)=O)NC(=O)[C@H](N)Cc1ccc(O)cc1)C(=O)N[C@@H](Cc1ccccc1)C(N)=O [Compound No. 303, D-Tyr-D-Asn-Pya(4)-Asn-Ser-Phe-AzaGly-Leu-Arg(Me)-Phe-NH2] (H-[dY][dN][4Pal]NSF[azaGly]L[Arg(Me)]F-NH2)
[1]
  intracellular Ca ion level-increasing activity [specific activity to Metastin (1-54)]: 5
[2]
  Specific Act. (EC50/MS10 EC50): 6.9

## Indole-3-acetyl-Phe-AzaGly-Leu-Arg(Me)-Phe-NH2 [Compound No. 345]
[1]
  intracellular Ca ion level-increasing activity [specific activity to Metastin (1-54)]: 2

## Indole-3-carbonyl-Phe-AzaGly-Leu-Arg(Me)-Phe-NH2 [Compound No. 344]
[1]
  intracellular Ca ion level-increasing activity [specific activity to Metastin (1-54)]: ½

## Methylthiocarbamoyl-Sar-D-Tyr-Asn-Trp-Asn-Ser-Phe-Gly-Leu-Arg(Me)-Phe-NH2 [Compound No. 397]
[1]
  intracellular Ca ion level-increasing activity [specific activity to Metastin (1-54)]: 5

## Phenylacetyl-Phe-AzaGly-Leu-Arg(Me)-Trp-NH2 [Compound No. 440]
[1]
  intracellular Ca ion level-increasing activity [specific activity to Metastin (1-54)]: 1

## Propionyl-Phe-AzaGly-Leu-Arg(Me)-Trp-NH2 [Compound No. 437]
[1]
  intracellular Ca ion level-increasing activity [specific activity to Metastin (1-54)]: 2

## Pyrazinecarbonyl-Phe-AzaGly-Leu-Arg(Me)-Trp-NH2 [Compound No. 446]
[1]
  intracellular Ca ion level-increasing activity [specific activity to Metastin (1-54)]: 1

## Tos-F[azaGly]L[Arg(Me)]F-NH2 [Compound No. 349]
[1]
  intracellular Ca ion level-increasing activity [specific activity to Metastin (1-54)]: ⅕

## Tos-Phe-AzaGly-Leu-Arg(Me)-Trp-NH2 [Compound No. 368]
[1]
  intracellular Ca ion level-increasing activity [specific activity to Metastin (1-54)]: ½

## Trifluoroacetyl-Phe-AzaGly-Leu-Arg(Me)-Trp-NH2 [Compound No. 448]
[1]
  intracellular Ca ion level-increasing activity [specific activity to Metastin (1-54)]: 3

## Z-Phe-AzaGly-Leu-Arg(Me)-Trp-NH2 [Compound No. 367]
[1]
  intracellular Ca ion level-increasing activity [specific activity to Metastin (1-54)]: ⅕

## n-Hexanoyl-Phe-AzaGly-Leu-Arg(Me)-Phe-NH2 [Compound No. 347]
[1]
  intracellular Ca ion level-increasing activity [specific activity to Metastin (1-54)]: ½

## n-Hexanoyl-Phe-AzaGly-Leu-Arg(Me)-Trp-NH2 [Compound No. 366]
[1]
  intracellular Ca ion level-increasing activity [specific activity to Metastin (1-54)]: ⅓

Reference: US8778871B2 (Takeda Pharmaceutical Company Limited, priority 2004, dated 2014)
